Activity calls are given as the source filed them. The rule behind the calls is not given here. Starred links: 1 amine or outer side, 2 acyl side, 3 side chain; linkers in the order of their positions; H or OH if unused. Residues, ends and D or L forms follow the SMILES beside them. *: point of attachment. X1 = COc1cc(NC(C)CCCNC(=O)C(N)CSSCC(N)C(=O)NC(=O)[C@H](CC(C)C)N*)c2ncccc2c1; Primaquine = COc1cc(NC(C)CCCN*)c2ncccc2c1; Suc = O=C(CCC(=O)[*:2])[*:1]
Legend:
[1] = tested on: Plasmodium berghei; assay: Antiplasmodial activity against Plasmodium berghei liver-stage forms at 1 to 10 uM; type: functional, organism-based
[2] = tested on: Huh-7; assay: Cytotoxicity against human HuH7 cells assessed as reduction in cell viability at 1 to 10 uM; type: cell-based; settings: huh-7, 10 µM

Compound | Activity [1] | Activity [2]
H-RKKRRQRRRPPQ-OH | Active | Non-Toxic
CC[C@H](C)[C@H](NC(=O)[C@H](CCCCN)NC(=O)[C@H](CCCCN)NC(=O)[C@H](C)NC(=O)[C@H](CC(C)C)NC(=O)[C@H](C)NC(=O)[C@H](C)NC(=O)[C@H](CC(C)C)NC(=O)[C@H](C)NC(=O)[C@H](CCCCN)NC(=O)[C@H](CC(C)C)NC(=O)[C@H](CC(N)=O)NC(=O)[C@@H](NC(=O)[C@H](CCCCN)NC(=O)CNC(=O)[C@H](CC(C)C)NC(=O)[C@H](CC(C)C)NC(=O)[C@H](Cc1ccc(O)cc1)NC(=O)CNC(=O)[C@H](C)N)[C@@H](C)CC)C(=O)N[C@@H](CC(C)C)C(=O)NC(=O)C(N)CSSCC(N)C(=O)NCCCC(C)Nc1cc(OC)cc2cccnc12 (some centres undefined) (H-AGYLLGKINLKALAALAKKI-X1) | Active | Toxic
CC[C@H](C)[C@H](NC(=O)[C@H](CCCNC(=N)N)NC(=O)[C@@H](NC(=O)[C@H](C)NC(=O)[C@@H](NC(=O)[C@@H](NC(=O)[C@H](CC(C)C)NC(=O)[C@H](CCCNC(=N)N)NC(=O)[C@@H](NC(=O)CCC(=O)NCCCC(C)Nc1cc(OC)cc2cccnc12)C(C)C)[C@@H](C)CC)C(C)C)C(C)C)C(=O)N[C@@H](Cc1c[nH]c2ccccc12)C(=O)N[C@@H](CCCNC(=N)N)C(=O)N[C@@H](CCCNC(=N)N)C(=O)O (some centres undefined) ({Primaquine-Suc}-VRLIVAVRIWRR-OH) | inactive | Non-Toxic
COc1cc(NC(C)CCCN)c2ncccc2c1 (centres undefined) [PRIMAQUINE] | Active | Non-Toxic
CC[C@H](C)[C@H](NC(=O)[C@H](CC(C)C)NC(=O)[C@H](Cc1ccccc1)NC(=O)[C@H](Cc1ccccc1)NC(=O)CCC(=O)NCCCC(C)Nc1cc(OC)cc2cccnc12)C(=O)N1CCC[C@H]1C(=O)N[C@@H](CCCCN)C(=O)NCC(=O)NCC(=O)N[C@@H](CCCNC(=N)N)C(=O)N[C@@H](CCCCN)C(=O)N[C@@H](CCCCN)C(=O)N[C@@H](CCCNC(=N)N)C(=O)N[C@@H](CCCNC(=N)N)C(=O)N[C@@H](CCC(N)=O)C(=O)N[C@@H](CCCNC(=N)N)C(=O)N[C@@H](CCCNC(=N)N)C(=O)N[C@@H](CCCNC(=N)N)C(=O)N1CCC[C@H]1C(=O)N1CCC[C@H]1C(=O)N[C@@H](CCC(N)=O)C(=O)O (some centres undefined) ({Primaquine-Suc}-FFLIPKGGRKKRRQRRRPPQ-OH) | – | Non-Toxic
CC[C@H](C)[C@H](NC(=O)[C@H](CCCCN)NC(=O)[C@H](CCCCN)NC(=O)[C@H](C)NC(=O)[C@H](CC(C)C)NC(=O)[C@H](C)NC(=O)[C@H](C)NC(=O)[C@H](CC(C)C)NC(=O)[C@H](C)NC(=O)[C@H](CCCCN)NC(=O)[C@H](CC(C)C)NC(=O)[C@H](CC(N)=O)NC(=O)[C@@H](NC(=O)[C@H](CCCCN)NC(=O)CNC(=O)[C@H](CC(C)C)NC(=O)[C@H](CC(C)C)NC(=O)[C@H](Cc1ccc(O)cc1)NC(=O)CNC(=O)[C@H](C)NC(=O)[C@H](CO)NC(=O)[C@H](CC(N)=O)NC(=O)[C@H](CC(C)C)NC(=O)[C@@H](NC(=O)[C@H](Cc1c[nH]c2ccccc12)NC(=O)CN)[C@@H](C)O)[C@@H](C)CC)C(=O)N[C@@H](CC(C)C)C(=O)O | inactive | Non-Toxic
H-FFLIPKGGRKKRRQRRRPPQ-OH | Active | Non-Toxic
CC[C@H](C)[C@H](NC(=O)[C@H](CCCCN)NC(=O)[C@H](CCCCN)NC(=O)[C@H](C)NC(=O)[C@H](CC(C)C)NC(=O)[C@H](C)NC(=O)[C@H](C)NC(=O)[C@H](CC(C)C)NC(=O)[C@H](C)NC(=O)[C@H](CCCCN)NC(=O)[C@H](CC(C)C)NC(=O)[C@H](CC(N)=O)NC(=O)[C@@H](NC(=O)[C@H](CCCCN)NC(=O)CNC(=O)[C@H](CC(C)C)NC(=O)[C@H](CC(C)C)NC(=O)[C@H](Cc1ccc(O)cc1)NC(=O)CNC(=O)[C@H](C)N)[C@@H](C)CC)C(=O)N[C@@H](CC(C)C)C(=O)O | Active | Non-Toxic
CC[C@H](C)[C@H](NC(=O)[C@H](CCCCN)NC(=O)[C@H](CCCCN)NC(=O)[C@H](C)NC(=O)[C@H](CC(C)C)NC(=O)[C@H](C)NC(=O)[C@H](C)NC(=O)[C@H](CC(C)C)NC(=O)[C@H](C)NC(=O)[C@H](CCCCN)NC(=O)[C@H](CC(C)C)NC(=O)[C@H](CC(N)=O)NC(=O)[C@@H](NC(=O)[C@H](CCCCN)NC(=O)CNC(=O)[C@H](CC(C)C)NC(=O)[C@H](CC(C)C)NC(=O)[C@H](Cc1ccc(O)cc1)NC(=O)CNC(=O)[C@H](C)NC(=O)CCC(=O)NCCCC(C)Nc1cc(OC)cc2cccnc12)[C@@H](C)CC)C(=O)N[C@@H](CC(C)C)C(=O)O (some centres undefined) | Active | Non-Toxic
COc1cc(NC(C)CCCNC(=O)CCC(=O)N[C@@H](CCCNC(=N)N)C(=O)N[C@@H](CCCCN)C(=O)N[C@@H](CCCCN)C(=O)N[C@@H](CCCNC(=N)N)C(=O)N[C@@H](CCCNC(=N)N)C(=O)N[C@@H](CCC(N)=O)C(=O)N[C@@H](CCCNC(=N)N)C(=O)N[C@@H](CCCNC(=N)N)C(=O)N[C@@H](CCCNC(=N)N)C(=O)N2CCC[C@H]2C(=O)N2CCC[C@H]2C(=O)N[C@@H](CCC(N)=O)C(=O)O)c2ncccc2c1 (some centres undefined) ({Primaquine-Suc}-RKKRRQRRRPPQ-OH) | Active | Non-Toxic
